These results are taken from patent US12721832B2, “Anti-senescence plant polyphenol drug downregulating senescence-related secretory phenotype and use thereof” (BYHEALTH CO., LTD., priority 2021, dated 2026).

The structures appear in SMILES notation.

For data set [1], the system named is senescent cells in tumor tissue. Description: SA-β-Gal staining of tumor tissue in PC3/PSC27 tumor-bearing mice. The class given is in vivo. Particulars: PCC1 administered to MIT-treated animals. The procedure:
Representative pictures after SA-β-Gal staining. Scale bar, 100 μm.
A P>0.05; **, P<0.01; ***, P<0.001.
(§1) In a preclinical treatment trial, subcutaneously transplanted mice were fed with a standard experimental diet, after 2 weeks chemotherapy drugs mitoxantrone (MIT, dose: 0.2 mg/kg) and/or procyanidin C1 (PCC1) (500 μl, dose: 10 mg/kg) via intraperitoneal administration. The time points were: the former was administrated on the first day of the 3rd, 5th and 7th weeks, and the latter was administrated on the first day of the 5th and 7th weeks. A total of 3 cycles of MIT administration were carried out throughout the course of treatment, and each cycle lasted for 2 weeks. After the course of treatment, mouse tumors were harvested for volume measurement and histological analysis. Each mouse cumulatively received 0.6 mg/kg body weight of MIT and 30 mg/kg body weight of PCC1. In order to cause systemic expression of SASP factor induced by chemotherapy, MIT was administered to mice through intravenous infusion according to the above steps and sequence, but the dose was reduced to 0.1 mg/kg body weight/each time (the cumulative dose of MIT received in the whole course of treatment was 0.3 mg/kg body weight) to reduce drug-related toxicity. […]

The test system of a further data set is aged C57BL/6 mice. Description: Physical ability test in aged mice. The class given is in vivo. Particulars: males and females, PCC1 biweekly. The procedure:
N=5. ^, P>0.05; **, P<0.01.
N=5/group. , P>0.05; ***, P<0.001.
All testing began on day 5 after the last placebo or drug treatment. Maximum walking speed was assessed using the accelerated RotaRod System (TSE System, Chesterfiled, Mo.). The mice were trained on the RotaRod for 3 days at speeds of 4, 6 and 8 r.p.m, lasted for 200 seconds on the 1st, 2nd and 3rd days. On the test day, the mice were placed on the RotaRod, and the test was performed starting at a speed of 4 r.p.m. The rotation speed was accelerated from 4 to 40 r.p.m at intervals of 5 minutes. When the mice fell off the RotaRod, the speed was recorded. The final results were averaged from 3 or 4 trials and normalized to baseline speed. […]
Forelimb grip strength (N) was measured using a Grip Strength Meter (Columbus Instruments, Columbus, Ohio), and the results were averaged from more than 10 trials. […] The mice were only allowed to grasp the wire with their forelimbs, and the hang time was normalized to body weight and expressed as hang duration (sec) x body weight (g). […] Their daily activity and food intake were monitored for 24 h (12 hours of light and 12 hours of dark) by a Comprehensive Laboratory Animal Monitoring System (CLAMS). […] The distance was recorded after the test, and the total work (KJ) was calculated with the following formula: mass (kg)×g (9.8 m/s^2)×distance (m)×sin) (5°).

Data set [2] relates to PSC27 cells. Description: Flow cytometry of apoptosis of PSC27. It counts as cell-based, human. From the text:
Q2, distribution area of early apoptotic cells; Q3, distribution area of late apoptotic cells.
A general note: Flow cytometry measures light scatter and fluorescence of single cells or particles in a stream.

Another data set deals with SASP factors. Nature of the data set: LCM and qRT-PCR of SASP factors in mouse lesions. The class given is in vivo, mice. The conditions noted are these: MIT/PCC1 vs MIT, stromal cells. Here is the method: The stromal cells and cancer cells were specifically separated by LCM technology, total RNA was prepared and used for SASP expression detection. A P>0.05; *, P<0.05; **, P<0.01; ***, P<0.001.
as §1

Data set [3] has as its system senescent PSC27 cells. Description: Caspase 3/7 activity / drug-induced apoptosis in senescent cells. The class given is cell-based, human. The procedure: PSC27 cells gradually entered the senescent stage after being treated with BLEO for 12 hours under culture conditions. 50 μM PCC1 was added to the medium of senescent cells starting from day 7, NucLight Rapid Red reagent was used to label the cells, and caspase 3/7 reagent (IncuCyte) was used for apoptosis detection. Caspase 3/7 activity was detected every 4 hours (n=3).
Statistical differences are obtained by two-way ANOVA (Turkey' test).
PSC27 cells were plated in a 96-well dish, and the cells were induced to senescence under the treatment of 50 μg/mL BLEO. PCC1 and ABT263 were added at concentrations of 50 μM and 1.0 μM, respectively. Cell culture medium was supplemented with Incucyte Nuclight fast Red Reagent (Essen Bioscience) and Incucyte C-3/7 Apoptosis Reagent (Essen Bioscience). Representative field of view was selected to take pictures.

The subject of data set [4] is senescent PSC27 cells. Nature of the data set: SA-β-Gal staining of PSC27 under increasing PCC1 concentration. It counts as cell-based, human. Here is the method: Senescence-associated (3-galactosidase (SA-β-Gal) staining was performed following a previously reported procedure (Debacq-Chainiaux et al., 2009). Briefly, cells in culture dishes were washed with PBS and fixed at room temperature. Cells were fixed in 2% formaldehyde and 0.2% glutaraldehyde for 3 minutes. SA-β-Gal was used for staining with freshly prepared staining solution overnight at 37° C. Images were taken on the next day and the percentage of positive cells per unit area was calculated.

The subject of data set [5] is PSC27 cells. Description: CCK8 cell viability of proliferating and senescent PSC27 under increasing PCC1. The class given is cell-based, human. Here is the method:
P value at each PCC1 concentration is the significant difference after comparison between CTRL and BLEO groups. **, P<0.01; ***, P<0.001; ****, P<0.0001.
Pharmacodynamic analysis was conducted on a natural product library (BY-HEALTH) with a total of 41 components, most of which were medicinal plant extracts and had anti-senescence potential. Each product was diluted to a 96-well plate according to a certain concentration gradient, and the density was 5000 cells per well. The medium uses DMEM, and the working concentration of natural product (or compound) is generally controlled at 1 μM to 1 mM. After 3-7 days of drug treatment, cell proliferation was measured with CCK-8 Cell Counting Kit (based on WST-8 principle, Vazyme), and cell apoptosis activity was determined with Caspase 3/7 Activity Kit (Promega).

Consider `Oc1cc(O)c2c(c1)O[C@H](c1ccc(O)c(O)c1)[C@H](O)[C@H]2c1c(O)cc(O)c2c1O[C@H](c1ccc(O)c(O)c1)[C@H](O)[C@H]2c1c(O)cc(O)c2c1O[C@H](c1ccc(O)c(O)c1)[C@H](O)C2` [PCC1, procyanidin C1], for which the “senescent cells within lesions of chemotherapeutic (MIT) animals” value in data set [1] is reported as “substantially depleted most senescent cells”. The “physical function during the last 2 months of life vs vehicle” value in the data set on aged C57BL/6 mice is recorded as “did not show a significant decrease”. Further, in the data set with PSC27 cells [2], the “change of proliferating cells” value is on record as “not obvious”, the “proportion of apoptosis in senescent PSC27 cells” value is on record as “significantly increased” and the “viability of senescent PSC27 cells” value is on record as “significantly reduced”. Besides, the “MIT-induced SASP expression change upon PCC1” value with SASP factors is recorded as “largely reversed”. Further, the “time after addition from which caspase-3/7 activity differs statistically between senescent and control group” value in the data set on senescent PSC27 cells [3] (50 μM PCC1) stood at 16 h. In the data set with senescent PSC27 cells [3] (proliferating PSC27), the “effect on proliferating cells (apoptosis)” value is “basically not targeted or affected”. Further, in the data set with senescent PSC27 cells [4] (150 μM PCC1, 80% staining positive without drug), the senescent cells remaining came out at 20%. The “killing effect at 200 μM versus 150 μM” value in the data set on senescent PSC27 cells [4] (200 μM PCC1) is “not further enhanced”. The “concentration at which killing effect reached a threshold” value with senescent PSC27 cells [4] (senescent PSC27) came to 150 µM. The “concentration from which senescent cells are eliminated (SA-β-Gal staining)” value in the data set with senescent PSC27 cells [4] (senescent PSC27, 0-200 μM) was 50 µM. Moreover, the “survival of proliferating cells” value with PSC27 cells [5] (proliferating PSC27, 200 μM PCC1) was “not significantly reduced”. In the data set on PSC27 cells [5] (senescent PSC27, 200 μM PCC1), the “percentage of surviving senescent cells” value is on record as “approximately 10%”. The “concentration from which significant death of senescent cells is induced” value in the data set with PSC27 cells [5] (senescent vs control proliferating cells, CCK8) worked out at 50 µM.
